For 1 compound, inhibition results are on record in publication PMC3367138, “Selective inhibitors of cardiac ADPR cyclase as novel anti-arrhythmic compounds” (Naunyn-Schmiedeberg's Archives of Pharmacology, 2012).

The target of this assay is T1, adenosine A2A receptor (Homo sapiens, UniProt P29274).
T1 construct: gene ADORA2A
As to the kind of experiment: radioligand displacement (agonist radioligand), single concentration […] in duplicate; […] of control remaining ([…] inhibition). It is filed as binding.

T1 sequence (P29274 whole entry): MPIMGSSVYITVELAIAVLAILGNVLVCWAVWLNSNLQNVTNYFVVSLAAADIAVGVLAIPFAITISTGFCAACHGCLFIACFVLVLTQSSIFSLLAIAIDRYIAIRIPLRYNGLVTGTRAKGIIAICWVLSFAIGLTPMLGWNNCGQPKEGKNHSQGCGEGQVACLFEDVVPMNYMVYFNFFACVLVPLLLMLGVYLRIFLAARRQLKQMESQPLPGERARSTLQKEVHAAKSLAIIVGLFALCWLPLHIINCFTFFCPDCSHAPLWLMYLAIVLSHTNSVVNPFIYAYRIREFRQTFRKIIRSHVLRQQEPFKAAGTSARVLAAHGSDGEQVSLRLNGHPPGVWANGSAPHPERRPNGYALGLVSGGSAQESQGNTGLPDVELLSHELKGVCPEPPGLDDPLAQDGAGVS

As usually defined, the inhibition is how much of the control response was suppressed. For `Cc1nn(Cc2cccc(C(=O)O)c2)c2nc(-c3ccncc3)[nH]c(=O)c12` [SAN4825], the inhibition at 10 µM stood at 81%.
